Consider five molecules from patent US5677324A, “Benzopyranes as potassium channel openers” (Pfizer Inc., priority 1993, dated 1997).

The assay relates to guinea pig tracheal ring preparations. The assay can be described thus: in vitro relaxation of guinea pig tracheal ring preparations (smooth muscle relaxant activity). Format: cell-based. Conditions: Cavia porcellus; relaxation of KCl (20 mM)-contracted tracheal strips, Krebs solution, 37° C.; reversal to pretreatment base line = 100 percent relaxation. The source says:
The compounds of the formula (I) have smooth muscle relaxant activity since they are able to open potassium channels in such tissue. They can be tested for smooth muscle relaxant activity by a method involving measuring the in vitro relaxation of guinea pig tracheal ring preparations as follows:
Male guinea pigs (500-600 g) were killed by a blow to the head and exsanguinated. The trachea was removed, placed in Krebs solution and cleaned. The trachea was slit through the cartilage along it's longitudinal axis and strips consisting of four adjacent cartilage rings were prepared. The strips were each placed in a water-jacketed organ bath (37° C.) containing Krebs solution and tied to a force-displacementtransducer for the measurement of isometric tension responses. The tissues were equilibrated for 60 minutes under a resting load of 1 g and washed every 15 minutes before the start of each experiment.
The composition of the Krebs solution was as follows (millimoles):- NaCl (119); KCl (4.7); NaHCO3 (25); KH2 PO4 (1.2); MgSO4 (1.2); CaCl2 (2.5); glucose (11), and indomethacin (2.8 μM) was added to remove the influence of the endogenous prostanoids. The solution was gassed with 95% O2 /5% CO2 and the temperature was kept constant at 37° C.
After the equilibration period a priming dose of KCl (20 mM) was added to each tissue bath and after a further 20 minutes the tissue was washed. After a further 30 minutes KCl (20 mM) was added to contract each tissue. The relaxant action of a compound of the formula (I) was examined when the maintained contractile response had stabilized. The compounds can be added cumulatively (10^-8 -10^-5 […]) at 5 minute intervals.
The reversal to pretreatment base line was taken as 100 percent relaxation in these studies and concentration-relaxation curves were constructed in order to obtain IC50 values for potency.
A selection of the compounds of the preceding Examples was tested for smooth muscle relaxant activity by the method involving measuring the in vitro relaxation of guinea pig tracheal ring preparations as described on pages 31 and 32 of the description.
Regarding `CC1(C)Oc2ccc(-c3nnnn3CCc3ccccc3)cc2[C@@H](N2CCCCC2=O)[C@@H]1O` (relative stereo) [Example 35], the IC50 turned out to be 40 nM. The same measure for `Cn1nnnc1-c1ccc2c(c1)[C@@H](N1CCCCC1=O)[C@H](O)C(C)(C)O2` (relative stereo) [Example 36]: 68 nM; for `Cn1nnnc1-c1ccc2c(c1)[C@@H](Oc1ccc(=O)[nH]n1)[C@](C)(O)C(C)(C)O2` [Example 3]: 150 nM; for `CC1(C)Oc2ccc(-c3nnnn3CCc3ccccc3)cc2C(Oc2ccc(=O)[nH]n2)C1(C)O` (centres unmarked) [Example 7]: 440 nM. The figure for `CCOC(=O)CCCCn1nnnc1-c1ccc2c(c1)[C@@H](Oc1ccc(O)nn1)[C@](C)(O)C(C)(C)O2` [Example 11, (3S,4R)-3,4-dihydro-6-(1-[4-ethoxycarbonylbut-1-yl]-1H-tetrazol-5-yl)-3-hydroxy-4-(3-hydroxypyridazin-6-yl)oxy-2,2,3-trimethyl-2H-benzo[b]pyran] is 120 nM.

By IC50 is commonly meant the point on the concentration scale where inhibition reaches its midpoint.
